From patent US6121296A, “Transition-state inhibitors for nucleoside hydrolase and transferase reactions” (Albert Einstein College of Medicine of Yeshiva University, priority 1998, dated 2000)
Like-named read-outs stand apart in the source and are kept apart here.

B1: IAG-nucleoside hydrolase (Trypanosoma brucei brucei TREU927) (protein)
chain: MAKTVILDHDGNKDDFVAMILLLSNPKKVNLIGCICTDADCFVENGFDVTGKIMCAMHRLIKTPLFPIGKSTATAVNAFPTEWRFSAKNLDDMPFLNIVEDVALWEKLKPENEAHNGQQLLADLVMKSKEKVTVCVTGPLSNMAWCIEKYGEAFTSKVEECVIMGGAVDVGGNVFLPTTDGSAEWNIYWDPPAAKKVLCCPNIRCVLFSLDATNTVPVRSVDVKGFGAQNQYLLSQMVGTMWAMSTHEEILRDGDAYYAWDALTAAYILEPTIATLEPVALDVDVSKGKSEGRTPRASGEGKPCVHVARNPSKQMFHDLVFASTRVC

Assays:
nucleoside hydrolase = target: T1, nucleoside hydrolase (Crithidia fasciculata, UniProt Q27546); assay: Inhibition of nucleoside hydrolase, inosine hydrolysis monitored at 280 nm, bis-tris pH 7.3; assay type: biochemical
T1 construct: nucleoside hydrolase was purified from C. fasciculata as described above; endogenous in cells; host or cells: Crithidia fasciculata cells grown in a 300-liter fermenter
T1 sequence (Q27546 1-315): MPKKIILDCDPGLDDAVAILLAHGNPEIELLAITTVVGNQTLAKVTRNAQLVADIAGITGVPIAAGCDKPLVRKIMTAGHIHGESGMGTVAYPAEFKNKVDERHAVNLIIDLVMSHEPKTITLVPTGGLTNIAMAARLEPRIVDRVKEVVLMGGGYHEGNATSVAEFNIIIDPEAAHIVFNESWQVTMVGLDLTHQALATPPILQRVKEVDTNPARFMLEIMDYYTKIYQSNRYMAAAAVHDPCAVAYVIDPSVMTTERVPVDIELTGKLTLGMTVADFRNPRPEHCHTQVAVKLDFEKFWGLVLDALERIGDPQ
Procedure: All assays were performed at 30° C. in 50 mM bis-tris buffer at pH 7.3. The substrate for all assays was inosine. Inhibition studies were performed by examining the initial velocity of the hydrolysis of inosine as a function of inosine concentration and (2S)-phenyl-(3S,4R)-dihydroxy-(5R)-hydroxymethylpyrrolidine concentration. A total of 75 velocity measurements were made.
The general protocol for measurement was as follows: various concentrations of inosine and inhibitor in the above buffer were prepared, and 1.0 mL aliquots placed in a quartz cuvette and equilibrated at 30° C. […] The decrease in absorption at 280 nm was monitored over a 10 minute period.

IU-nucleoside hydrolase [1] = target: T2, IU-nucleoside hydrolase (Crithidia fasciculata, UniProt Q27546, P2A); assay: biochemical; assay type: biochemical, C. fasciculata; conditions: for inhibition pattern: minimum of four substrate and three inhibitor concentrations
T2 construct: contained the coding region for the enzyme; made in house; host or cells: E. coli BL21 (DE3)pLysS, pET3d plasmid
Excerpt: Enzymes. Inosine-uridine nucleoside hydrolase (IU-nucleoside hydrolase) was purified from extracts of E. coli strain BL21 (DE3)pLysS which contained the coding region for the enzyme isolated from C. fasciculata in a pET3d expression plasmid. The DNA coding for the enzyme was placed in the NcoI-BamHI site. This construct gives a Pro2Ala substitution which has no significant effect on the kinetic properties of the purified enzyme. The overexpressed enzyme was purified to apparent homogeneity as previously described (Gopaul, et al. (1996) Biochemistry 35, 5963-5970).
(§1) Enzyme Assays. Initial rate measurements were accomplished at 30° C. in reaction mixtures containing 50 mM potassium phosphate, pH 7.5, or 50 mM Hepes, pH 8.0, and nitrophenylribose or inosine as substrates (Mazella, et al. (1996) J. Am. Chem. Soc. 118, 2111-2112). At pH 7.5 the product p-nitrophenylate anion is present at a concentration which gives a millimolar extinction coefficient of 9.3 cm^-1 at 400 nm. Reaction mixtures with nitrophenylribose as substrate were initiated by the addition of enzyme, and product formation was monitored by continuous recording at 400 nm. With inosine as substrate, the conversion to hypoxanthine was monitored continuously at 280 nm (Parkin, et al. (1991) J. Biol. Chem. 266, 20658-20665). […] The remainder of the inhibitors were analyzed at one fixed substrate concentration and variable inhibitor concentrations. Inhibition constants for IAG-nucleoside hydrolase were established from full kinetic analysis with V and X as inhibitors. […] The remainder of the inhibition constants were characterized by titration of assay mixtures containing a fixed concentration of substrate with variable inhibitor concentrations. […] For Ki determination at a fixed substrate concentration, this approach assumes that substrate and inhibitor compete for the catalytic site.
Inhibitors. Iminoribitol inhibitor were synthesized and purified according to the methods of Furneaux, et al. (Tetrahedron (1997) in press), characterized by NMR, dissolved in H2 O and stored at -20° C. The compounds are enzymatically and chemically stable in H2 O and under conditions of the assay. IU-Nucleoside hydrolase is susceptible to slow-onset tight-binding inhibition under certain conditions (Horenstein & Schramm, (1993b) Biochemistry 32, 9917-9925, Boutellier, et al. (1994) Biochemistry, 33, 3994-4000). However, in the initial reaction rate conditions described here, only the rapidly reversible competition between substrate and inhibitor is being observed. Thus, the reported kinetic constants are dissociation constants which exclude slow-onset binding.

IAG-nucleoside hydrolase = IAG-nucleoside hydrolase (Trypanosoma brucei, UniProt Q57ZL6); assay: Inhibition of IAG-nucleoside hydrolase, initial rates; conditions: for inhibition at highest concentration tested: 80, 120, 120 and 160 μM II, III, IV and VI respectively, 75 μM inosine; for Km /Ki IAG-nucleoside hydrolase: comparison with inosine; for inhibition pattern: full kinetic analysis
Procedure: The enzyme was purified to apparent homogeneity as determined by denaturing polyacrylamide gel electrophoresis (Parkin, (1996) J. Biol. Chem. 271, 21713-21719). Some of the studies used the T. brucei brucei enzyme which was overexpressed in E. coli.
as §1, with “concentrations.” for “concentrations. Inhibition constants for IAG-nucleoside hydrolase were established from full kinetic analysis with V and X as inhibitors.”
Inhibitors. Iminoribitol inhibitor were synthesized and purified according to the methods of Furneaux, et al. (Tetrahedron (1997) in press), characterized by NMR, dissolved in H2 O and stored at -20° C.

IU-nucleoside hydrolase [2] = target: T2, IU-nucleoside hydrolase; conditions: cited from earlier work
[3] = substrate: OC[C@H]1O[C@@H](n2cnc3c(O)ncnc32)[C@H](O)[C@@H]1O; assay: purified protein, by the assay type; conditions: other: inosine as substrate; 30.0 °C
Excerpt: The IAG-nucleoside hydrolase was purified from the blood-stream form of T. brucei brucei (ILTaT 1.1) grown in sublethally irradiated (650 rads) Sprague-Dawley rats. The enzyme was purified to apparent homogeneity as determined by denaturing polyacrylamide gel electrophoresis (Parkin, (1996) J. Biol. Chem. 271, 21713-21719). Some of the studies used the T. brucei brucei enzyme which was overexpressed in E. coli.
At pH 7.5 the product p-nitrophenylate anion is present at a concentration which gives a millimolar extinction coefficient of 9.3 cm^-1 at 400 nm. Reaction mixtures with nitrophenylribose as substrate were initiated by the addition of enzyme, and product formation was monitored by continuous recording at 400 nm. […] The remainder of the inhibitors were analyzed at one fixed substrate concentration and variable inhibitor concentrations. […] The remainder of the inhibition constants were characterized by titration of assay mixtures containing a fixed concentration of substrate with variable inhibitor concentrations. […] For Ki determination at a fixed substrate concentration, this approach assumes that substrate and inhibitor compete for the catalytic site. In these cases, data were fit to the equation: 1/v=1/kcat +(Km /kcat A)(1+I/Ki)
The compounds are enzymatically and chemically stable in H2 O and under conditions of the assay. […]

[4] = KI IU-nucleoside hydrolase, Table V

T2 sequence (Q27546 whole entry P2A): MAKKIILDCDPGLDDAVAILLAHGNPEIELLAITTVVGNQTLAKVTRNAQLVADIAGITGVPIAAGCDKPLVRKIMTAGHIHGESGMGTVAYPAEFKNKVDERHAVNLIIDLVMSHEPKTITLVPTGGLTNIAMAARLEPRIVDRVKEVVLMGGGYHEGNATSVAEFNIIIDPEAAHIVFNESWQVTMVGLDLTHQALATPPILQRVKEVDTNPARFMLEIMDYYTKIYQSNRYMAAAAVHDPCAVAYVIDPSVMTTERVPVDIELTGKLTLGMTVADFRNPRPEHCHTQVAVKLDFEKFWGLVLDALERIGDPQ

Molecule	Ki (IU-nucleoside hydrolase [1]; [4])	Ki (IAG-nucleoside hydrolase)	Km /KI IAG-nucleoside hydrolase (IAG-nucleoside hydrolase)	inhibition pattern (IU-nucleoside hydrolase [1])	also measured
OC[C@H]1N[C@@H](c2ccccc2)[C@H](O)[C@@H]1O [(2S)-phenyl-(3S,4R)-dihydroxy-(5R)-hydroxymethyl-pyrrolidine]					binding better than the substrate inosine (nucleoside hydrolase): approximately 2,000 fold; inhibition pattern (nucleoside hydrolase): competitive inhibition pattern; Ki (nucleoside hydrolase; read-out: inhibition constant): 0.15 µM
O=[N+]([O-])c1cccc([C@@H]2N[C@H](CO)[C@@H](O)[C@H]2O)c1 [III]	7.5 ± 0.5 µM	> 360 µM	< 0.05		inhibition at highest concentration tested (IAG-nucleoside hydrolase): NO inhibition was observed
O=[N+]([O-])c1ccc([C@@H]2N[C@H](CO)[C@@H](O)[C@H]2O)cc1 [IV]	1.1 ± 0.1 µM	> 360 µM	< 0.05		inhibition at highest concentration tested (IAG-nucleoside hydrolase): NO inhibition was observed
Nc1cccc([C@@H]2N[C@H](CO)[C@@H](O)[C@H]2O)c1 [IX]	0.051 ± 0.004 µM	38 ± 4 µM	0.47		
OC[C@H]1NC[C@H](O)[C@@H]1O [I]		44 ± 4 µM	0.41	slope-linear competitive inhibitors	Ki (IU-nucleoside hydrolase [2]; Table V, from Horenstein and Schramm (1993b), read-out: KI IU-nucleoside hydrolase): 4.5 ± 0.4 µM
OC[C@H]1N[C@@H](c2ccccc2)[C@H](O)[C@@H]1O [V, phenyliminoribitol]		180 µM	0.1	slope-linear competitive inhibitors	Ki (IU-nucleoside hydrolase [2]; read-out: KI IU-nucleoside hydrolase, from Horenstein and Schramm (1993b)): 0.3 µM; Ki (IU-nucleoside hydrolase [2]; read-out: Ki IU-nucleoside hydrolase, Table VI, taken from Horenstein and Schramm (1993b)): 0.3 µM; Km /Ki IAG-nucleoside hydrolase (IAG-nucleoside hydrolase; Table VI): 0.1; inhibition pattern (IAG-nucleoside hydrolase): competitive inhibition
OC[C@H]1N[C@@H](c2ccc(F)cc2)[C@H](O)[C@@H]1O [VIII]	0.057 ± 0.005 µM	205 ± 14 µM	0.088	slope-linear competitive inhibitors	
OC[C@H]1N[C@@H](c2ccc(O)cc2)[C@H](O)[C@@H]1O [VII]	0.075 ± 0.004 µM	35 ± 2 µM	0.51		
O=C(O)c1ccc([C@@H]2N[C@H](CO)[C@@H](O)[C@H]2O)cc1 [VI]	0.096 ± 0.007 µM	> 480 µM	< 0.04		inhibition at highest concentration tested (IAG-nucleoside hydrolase): NO inhibition was observed
OC[C@H]1O[C@@H](c2ccccc2)[C@H](O)[C@@H]1O [XIII, 1-deoxy-1-C-phenyl-β-D-ribofuranose, reference compound]		> 30000 µM			Ki (IU-nucleoside hydrolase [1]; Ki IU-nucleoside hydrolase, Table VI, 58 μM nitrophenylriboside, 50 mM Hepes, pH 8.0): 600 µM; Ki (IU-nucleoside hydrolase [1]; inhibition constant IU-enzyme, text b399, unit inferred): 1600 µM; decline of affinity relative to inosine (IAG-nucleoside hydrolase): > 1670 fold; binding / inhibition at 10 mM (IAG-nucleoside hydrolase; 10 mM XIII): no binding can be detected; Km /Ki IAG-nucleoside hydrolase (IAG-nucleoside hydrolase; Table VI): < 0.0006; Ki (IAG-nucleoside hydrolase; read-out: Ki IAG-nucleoside hydrolase, Table VI, XIII: 560 μM nitrophenylriboside, 50 mM Hepes, pH 8.0, lower limit): > 30000 µM
OC[C@H]1N[C@@H](c2ccc(Br)cc2)[C@H](O)[C@@H]1O [XII]	0.028 ± 0.004 µM	113 ± 5 µM	0.16	slope-linear competitive inhibitors	
OC[C@H]1N[C@@H](c2ccc(Cl)cc2)[C@H](O)[C@@H]1O [XI]	0.03 ± 0.0014 µM	190 ± 8 µM	0.095	slope-linear competitive inhibitors	
Nc1ccc([C@@H]2N[C@H](CO)[C@@H](O)[C@H]2O)cc1 [X]	0.03 ± 0.002 µM	12 ± 1 µM	1.5		binding compared to inosine (IAG-nucleoside hydrolase): binds as well as the preferred substrate, inosine; inhibition pattern (IAG-nucleoside hydrolase): competitive inhibition
O=[N+]([O-])c1ccc(O[C@@H]2O[C@H](CO)[C@@H](O)[C@H]2O)cc1 [nitrophenylribose, reference compound]					Km (IU-nucleoside hydrolase [1]; compound as substrate): 64 ± 6 µM
B1					Km [3]: 18 ± 1 µM
